The source of these data is patent US7423121B2, “Sodium channel rNav1.5a” (Neurosearch A/S, priority 2000, dated 2008).

What is called IC50 is the point on the concentration scale where inhibition reaches its midpoint. Low values mean inhibition by little substance, high ones a need for much substance.

In one assay the target is rNav1.2a (Rattus norvegicus, UniProt P04775). Description: Whole-cell recording of peak sodium current, inhibition by Lamotrigine, classical brain type rNav1.2a. In kind it is cell-based. Particulars: physiological saline, stimulation every 5 second, step from holding potential (e.g. −90 mV) to −10 mV. How it is done: (§1) Comparison of the Inhibitory Effect of Lamotrigine on the Classical Brain Type rNav1.2a and the Sodium Channel Expressed Endogenously in HiB5 Cells (rNav1.5a)
(§2) Experiments were performed as whole-cell recordings in physiological saline with stimulation of the sodium channel every 5 second by stepping from a holding potential (e.g. −90 mV) to −10 mV and monitoration of the peak current as a function of the concentration of Lamotrigine added to the recording chamber.

The target in a further assay is T1, rNav1.5a (Rattus norvegicus, UniProt P15389).
T1 construct: the Sodium Channel Expressed Endogenously in HiB5 Cells (rNav1.5a); endogenous in cells; host or cells: HiB5 (rat hippocampal stem cell line)
Description: Whole-cell recording of peak sodium current, inhibition by Lamotrigine, sodium channel expressed endogenously in HiB5 cells (rNav1.5a). In kind it is cell-based. The procedure:
as §1, §2

T1 sequence (P15389 1-1966 isoform P15389-2): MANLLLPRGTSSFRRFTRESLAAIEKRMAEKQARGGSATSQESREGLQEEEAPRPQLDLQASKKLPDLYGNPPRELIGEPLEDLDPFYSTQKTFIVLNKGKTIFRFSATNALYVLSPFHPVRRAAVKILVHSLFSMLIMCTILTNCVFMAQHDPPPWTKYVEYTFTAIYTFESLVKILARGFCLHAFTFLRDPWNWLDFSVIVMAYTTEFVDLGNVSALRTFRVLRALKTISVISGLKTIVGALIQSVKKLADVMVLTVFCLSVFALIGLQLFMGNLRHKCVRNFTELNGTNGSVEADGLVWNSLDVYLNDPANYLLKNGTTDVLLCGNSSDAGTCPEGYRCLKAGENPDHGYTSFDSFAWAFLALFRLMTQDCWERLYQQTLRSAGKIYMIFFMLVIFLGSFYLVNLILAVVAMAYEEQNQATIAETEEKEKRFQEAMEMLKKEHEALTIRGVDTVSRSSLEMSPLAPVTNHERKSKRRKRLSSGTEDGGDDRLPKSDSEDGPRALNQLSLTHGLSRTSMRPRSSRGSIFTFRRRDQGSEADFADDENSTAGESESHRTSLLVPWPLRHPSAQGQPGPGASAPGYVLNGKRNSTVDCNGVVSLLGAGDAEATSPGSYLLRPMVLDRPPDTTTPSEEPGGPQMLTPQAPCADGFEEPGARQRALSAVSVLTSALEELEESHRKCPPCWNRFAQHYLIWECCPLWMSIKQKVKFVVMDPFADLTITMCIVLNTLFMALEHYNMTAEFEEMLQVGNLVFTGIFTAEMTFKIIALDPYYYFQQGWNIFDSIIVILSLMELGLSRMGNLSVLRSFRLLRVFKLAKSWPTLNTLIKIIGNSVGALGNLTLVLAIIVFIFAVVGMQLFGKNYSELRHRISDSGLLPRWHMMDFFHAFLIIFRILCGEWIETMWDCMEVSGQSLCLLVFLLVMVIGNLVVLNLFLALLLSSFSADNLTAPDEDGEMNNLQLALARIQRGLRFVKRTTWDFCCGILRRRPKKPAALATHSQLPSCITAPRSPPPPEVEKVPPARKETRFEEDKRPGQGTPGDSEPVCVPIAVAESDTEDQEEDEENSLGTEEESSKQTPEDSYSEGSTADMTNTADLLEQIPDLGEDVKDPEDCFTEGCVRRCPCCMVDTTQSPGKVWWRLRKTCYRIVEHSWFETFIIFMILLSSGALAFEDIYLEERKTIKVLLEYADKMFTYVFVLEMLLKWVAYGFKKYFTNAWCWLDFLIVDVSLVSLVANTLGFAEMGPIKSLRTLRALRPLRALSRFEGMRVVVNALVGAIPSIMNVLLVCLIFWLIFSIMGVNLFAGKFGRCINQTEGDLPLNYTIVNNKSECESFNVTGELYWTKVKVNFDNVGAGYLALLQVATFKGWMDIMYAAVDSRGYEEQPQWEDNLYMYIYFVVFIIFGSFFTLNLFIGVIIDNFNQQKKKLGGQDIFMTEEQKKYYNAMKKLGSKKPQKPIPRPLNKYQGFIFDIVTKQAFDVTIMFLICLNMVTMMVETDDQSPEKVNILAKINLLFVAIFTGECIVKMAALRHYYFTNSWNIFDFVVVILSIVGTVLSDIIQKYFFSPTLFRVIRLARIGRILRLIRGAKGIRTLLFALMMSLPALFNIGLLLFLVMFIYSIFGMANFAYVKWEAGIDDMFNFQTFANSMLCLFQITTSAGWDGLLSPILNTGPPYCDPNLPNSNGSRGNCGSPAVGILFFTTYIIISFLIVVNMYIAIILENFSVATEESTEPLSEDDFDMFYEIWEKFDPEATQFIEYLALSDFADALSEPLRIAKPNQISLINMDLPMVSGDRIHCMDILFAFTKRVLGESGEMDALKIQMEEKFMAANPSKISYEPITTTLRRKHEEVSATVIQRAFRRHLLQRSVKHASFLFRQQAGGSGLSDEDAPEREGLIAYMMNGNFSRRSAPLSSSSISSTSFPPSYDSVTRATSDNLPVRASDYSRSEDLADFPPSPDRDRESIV

As for `Nc1nnc(-c2cccc(Cl)c2Cl)c(N)n1` [Lamotrigine], the IC50 at rNav1.2a turned out to be 500 µM; at rNav1.5a (HiB5 cells, whole-cell recording, physiological saline, stimulation every 5 second, step from holding potential (e.g. −90 mV) to −10 mV), 20 µM. On rNav1.5a (comparison with BIIA (rNav1.2a), see Example 2), the “Potency on rNav1.5a relative to classical brain subtype BIIA” value was “more potently”.
